Experimental findings from ChEMBL document CHEMBL3525953, “In vitro cytochrome P450-mediated metabolism of exemestane” (Drug Metab Dispos, 2011) are described below.

The Km is the substrate concentration at which the rate is half of its maximum.

Type in all cases: ADME
The target of one series is T1, Cytochrome P450 1A1 (Homo sapiens, UniProt P04798).
T1 sequence (P04798 whole entry): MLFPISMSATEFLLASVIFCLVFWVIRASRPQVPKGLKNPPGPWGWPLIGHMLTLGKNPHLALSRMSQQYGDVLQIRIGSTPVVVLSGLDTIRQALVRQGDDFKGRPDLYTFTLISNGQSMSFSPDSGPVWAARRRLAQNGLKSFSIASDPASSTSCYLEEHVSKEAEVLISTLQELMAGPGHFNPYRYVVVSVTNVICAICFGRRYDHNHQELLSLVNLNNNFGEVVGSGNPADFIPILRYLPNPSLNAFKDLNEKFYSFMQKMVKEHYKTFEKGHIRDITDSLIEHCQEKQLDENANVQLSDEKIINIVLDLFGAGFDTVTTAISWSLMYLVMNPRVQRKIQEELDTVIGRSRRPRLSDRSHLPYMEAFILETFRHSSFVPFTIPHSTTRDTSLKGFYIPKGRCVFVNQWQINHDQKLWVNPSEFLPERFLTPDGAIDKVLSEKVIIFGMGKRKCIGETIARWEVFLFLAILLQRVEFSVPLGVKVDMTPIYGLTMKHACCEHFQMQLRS
As to the kind of experiment: Drug metabolism assessed as human recombinant CYP1A1-mediated 6-Hydroxymethylexemestane formation rate per pmol of enzyme at 10 uM after 10 mins.

The target of a further series is Cytochrome P450 3A5 (Homo sapiens, UniProt P20815). As to the kind of experiment: Drug metabolism assessed as human recombinant CYP3A5-mediated 6-Hydroxymethylexemestane formation rate per pmol of enzyme at 10 uM after 10 mins.
Series [1] deals with T2, Cytochrome P450 2C9 (Homo sapiens, UniProt P11712). As to the kind of experiment: Drug metabolism assessed as human recombinant CYP2C9-mediated 6-Hydroxymethylexemestane formation rate per pmol of enzyme at 10 uM after 10 mins.
In series [2] the test system is Liver microsome. As to the kind of experiment: Drug metabolism in human liver microsomes assessed as 6-hydroxymethylexemestane formation at 10 uM after 10 mins by LC-MS/MS analysis.
For series [3], the target named is T3, Cytochrome P450 2C19 (Homo sapiens, UniProt P33261). As to the kind of experiment: Drug metabolism assessed as human recombinant CYP2C19-mediated 6-Hydroxymethylexemestane formation rate per pmol of enzyme at 10 uM after 10 mins.
Series [4] has as its system Liver microsome. As to the kind of experiment: Drug metabolism in human liver microsomes assessed as retention time treated with 300 uM of exemestane after 10 mins by HPLC with UV analysis. A general note: Liver microsomes are a subcellular fraction often used to study metabolism.
Series [5] concerns the target T4, Cytochrome P450 2C8 (Homo sapiens, UniProt P10632).
T4 sequence (P10632 whole entry): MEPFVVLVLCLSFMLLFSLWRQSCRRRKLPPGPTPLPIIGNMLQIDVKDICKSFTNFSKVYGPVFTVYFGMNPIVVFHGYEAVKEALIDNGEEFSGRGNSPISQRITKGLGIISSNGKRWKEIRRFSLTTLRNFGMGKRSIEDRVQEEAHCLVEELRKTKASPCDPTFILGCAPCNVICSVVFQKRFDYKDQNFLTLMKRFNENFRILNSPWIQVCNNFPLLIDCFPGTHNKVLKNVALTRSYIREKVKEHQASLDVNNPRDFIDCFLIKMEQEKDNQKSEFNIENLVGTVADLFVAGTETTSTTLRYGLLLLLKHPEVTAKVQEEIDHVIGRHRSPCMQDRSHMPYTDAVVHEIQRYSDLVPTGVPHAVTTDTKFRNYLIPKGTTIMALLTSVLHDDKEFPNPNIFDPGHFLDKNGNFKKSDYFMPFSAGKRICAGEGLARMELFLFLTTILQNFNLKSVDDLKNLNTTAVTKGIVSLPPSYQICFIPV
As to the kind of experiment: Drug metabolism assessed as human recombinant CYP2C8-mediated 6-Hydroxymethylexemestane formation rate per pmol of enzyme at 10 uM after 10 mins.

Another series has as its target Cytochrome P450 3A4 (Homo sapiens, UniProt P08684). As to the kind of experiment: Drug metabolism assessed as human recombinant CYP3A4-mediated 6-Hydroxymethylexemestane formation rate per pmol of enzyme at 10 uM after 10 mins.
Series [6] deals with T5, Cytochrome P450 2B6 (Homo sapiens, UniProt P20813).
T5 sequence (P20813 whole entry): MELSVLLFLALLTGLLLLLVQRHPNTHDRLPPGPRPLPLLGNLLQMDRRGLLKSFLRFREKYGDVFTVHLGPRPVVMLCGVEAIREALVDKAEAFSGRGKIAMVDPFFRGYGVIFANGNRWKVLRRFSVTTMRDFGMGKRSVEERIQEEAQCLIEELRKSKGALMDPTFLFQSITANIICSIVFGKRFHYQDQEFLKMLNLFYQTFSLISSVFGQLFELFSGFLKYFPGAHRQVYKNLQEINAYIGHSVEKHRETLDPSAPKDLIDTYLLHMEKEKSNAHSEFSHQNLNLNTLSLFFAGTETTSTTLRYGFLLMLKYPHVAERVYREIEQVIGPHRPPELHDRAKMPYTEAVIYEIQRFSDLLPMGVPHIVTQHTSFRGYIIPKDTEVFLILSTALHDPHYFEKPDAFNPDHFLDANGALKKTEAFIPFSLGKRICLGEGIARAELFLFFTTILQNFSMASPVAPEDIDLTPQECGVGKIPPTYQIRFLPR
As to the kind of experiment: Drug metabolism assessed as human recombinant CYP2B6-mediated 6-Hydroxymethylexemestane formation rate per pmol of enzyme at 10 uM after 10 mins.

The target in series [7] is T2, Cytochrome P450 2C9. As to the kind of experiment: Drug metabolism assessed as human recombinant CYP2C9-mediated 6-Hydroxymethylexemestane formation at 10 uM after 10 mins by Michaelis-Menten saturation curve analysis. The settings on record: recombinant enzyme.
The target of series [8] is T4, Cytochrome P450 2C8. As to the kind of experiment: Drug metabolism assessed as human recombinant CYP2C8-mediated 6-Hydroxymethylexemestane formation at 10 uM after 10 mins by Michaelis-Menten saturation curve analysis. The note with it: recombinant enzyme.
Series [9] deals with Liver microsome. As to the kind of experiment: Drug metabolism in human liver microsomes assessed as 6-hydroxymethylexemestane formation after 10 mins by Michaelis-Menten saturation curve analysis.
The target of series [10] is T3, Cytochrome P450 2C19. As to the kind of experiment: Drug metabolism assessed as human recombinant CYP2C19-mediated 6-Hydroxymethylexemestane formation at 10 uM after 10 mins by Michaelis-Menten saturation curve analysis. The settings on record: recombinant enzyme.
The target of series [11] is T5, Cytochrome P450 2B6. As to the kind of experiment: Drug metabolism assessed as human recombinant CYP2B6-mediated 6-Hydroxymethylexemestane formation at 10 uM after 10 mins by Michaelis-Menten saturation curve analysis. The settings on record: recombinant enzyme.
Series [12] concerns the target T5, Cytochrome P450 2B6. As to the kind of experiment: Drug metabolism assessed as human recombinant CYP2B6-mediated 17-hydroexemestane and 6-Hydroxymethylexemestane formation assessed as inhibition of metabolite formation at 10 uM after 10 mins by Michaelis-Menten saturation curve analysis in presence of 5 uM thioTEPA. Details: interact cpd dose 5 uM. The settings on record: recombinant enzyme.

Series [13] concerns Liver microsome. As to the kind of experiment: Drug metabolism in human liver microsomes assessed as retention time at 300 uM after 10 mins by HPLC with UV analysis.
A further series has as its target Cytochrome P450 2E1 (Homo sapiens, UniProt P05181). As to the kind of experiment: Drug metabolism assessed as human recombinant CYP2E1-mediated 17-hydroexemestane and 6-Hydroxymethylexemestane formation assessed as inhibition of metabolite formation at 10 uM after 10 mins by Michaelis-Menten saturation curve analysis in presence of 50 uM diethylthiocarbamate. Details: interact cpd dose 50 uM. The note with it: recombinant enzyme.

Series [14] deals with Liver microsome. As to the kind of experiment: Drug metabolism in human liver microsomes assessed as retention time at 50 uM after 10 mins by HPLC with UV analysis.

T3 sequence (P33261 whole entry): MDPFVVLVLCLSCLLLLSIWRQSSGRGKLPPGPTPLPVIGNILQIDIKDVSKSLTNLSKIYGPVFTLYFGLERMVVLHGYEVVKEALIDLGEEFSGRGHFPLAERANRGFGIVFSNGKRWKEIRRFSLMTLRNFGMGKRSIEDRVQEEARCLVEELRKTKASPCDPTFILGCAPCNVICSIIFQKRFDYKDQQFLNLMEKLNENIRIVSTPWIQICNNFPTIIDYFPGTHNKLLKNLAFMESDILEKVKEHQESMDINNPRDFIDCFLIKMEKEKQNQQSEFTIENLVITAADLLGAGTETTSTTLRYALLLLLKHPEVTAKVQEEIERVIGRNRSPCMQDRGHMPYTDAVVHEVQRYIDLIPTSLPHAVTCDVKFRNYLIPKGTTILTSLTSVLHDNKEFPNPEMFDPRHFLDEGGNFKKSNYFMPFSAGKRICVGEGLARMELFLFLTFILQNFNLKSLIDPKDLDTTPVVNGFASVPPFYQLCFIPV
T2 sequence (P11712 whole entry): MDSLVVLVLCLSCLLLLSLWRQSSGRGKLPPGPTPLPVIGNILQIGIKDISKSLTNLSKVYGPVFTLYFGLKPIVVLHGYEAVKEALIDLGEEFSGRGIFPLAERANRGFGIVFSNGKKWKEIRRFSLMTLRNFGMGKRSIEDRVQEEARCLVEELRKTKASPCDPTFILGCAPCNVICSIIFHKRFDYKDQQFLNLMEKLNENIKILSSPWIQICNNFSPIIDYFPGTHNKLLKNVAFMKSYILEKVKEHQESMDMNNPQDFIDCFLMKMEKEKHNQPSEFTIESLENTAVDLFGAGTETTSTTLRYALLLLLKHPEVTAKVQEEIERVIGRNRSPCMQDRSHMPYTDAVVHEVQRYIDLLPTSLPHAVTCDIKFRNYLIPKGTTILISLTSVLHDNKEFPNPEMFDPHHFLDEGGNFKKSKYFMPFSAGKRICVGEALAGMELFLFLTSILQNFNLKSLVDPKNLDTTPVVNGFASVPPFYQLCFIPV
Chain of Cytochrome P450 3A4 (P08684 whole entry): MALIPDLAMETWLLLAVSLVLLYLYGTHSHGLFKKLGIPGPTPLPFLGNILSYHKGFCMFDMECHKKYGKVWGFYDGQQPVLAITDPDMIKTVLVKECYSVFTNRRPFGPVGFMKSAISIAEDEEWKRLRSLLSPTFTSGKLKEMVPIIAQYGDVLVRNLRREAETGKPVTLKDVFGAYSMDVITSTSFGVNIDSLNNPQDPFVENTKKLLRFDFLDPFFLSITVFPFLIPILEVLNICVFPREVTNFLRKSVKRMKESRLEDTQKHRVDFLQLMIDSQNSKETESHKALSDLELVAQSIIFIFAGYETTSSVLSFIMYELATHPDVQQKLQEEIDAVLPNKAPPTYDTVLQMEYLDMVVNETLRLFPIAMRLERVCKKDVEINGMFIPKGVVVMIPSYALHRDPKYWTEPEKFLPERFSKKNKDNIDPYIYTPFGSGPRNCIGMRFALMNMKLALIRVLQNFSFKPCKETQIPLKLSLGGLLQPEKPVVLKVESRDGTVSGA
Chain of Cytochrome P450 3A5 (P20815 whole entry): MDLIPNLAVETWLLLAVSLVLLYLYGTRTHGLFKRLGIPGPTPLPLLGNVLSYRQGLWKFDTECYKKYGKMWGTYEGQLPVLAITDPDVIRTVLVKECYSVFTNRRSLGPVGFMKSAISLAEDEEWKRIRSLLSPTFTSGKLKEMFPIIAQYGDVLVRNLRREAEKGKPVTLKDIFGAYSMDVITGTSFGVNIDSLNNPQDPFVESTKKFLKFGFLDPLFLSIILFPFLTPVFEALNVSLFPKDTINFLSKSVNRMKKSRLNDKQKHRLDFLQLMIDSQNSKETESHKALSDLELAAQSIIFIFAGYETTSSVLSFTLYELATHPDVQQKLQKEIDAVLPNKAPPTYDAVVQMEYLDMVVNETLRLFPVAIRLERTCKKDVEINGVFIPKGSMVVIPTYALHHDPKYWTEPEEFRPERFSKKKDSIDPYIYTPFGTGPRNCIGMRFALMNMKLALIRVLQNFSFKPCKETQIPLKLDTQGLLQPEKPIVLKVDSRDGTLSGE
Chain of Cytochrome P450 2E1 (P05181 whole entry): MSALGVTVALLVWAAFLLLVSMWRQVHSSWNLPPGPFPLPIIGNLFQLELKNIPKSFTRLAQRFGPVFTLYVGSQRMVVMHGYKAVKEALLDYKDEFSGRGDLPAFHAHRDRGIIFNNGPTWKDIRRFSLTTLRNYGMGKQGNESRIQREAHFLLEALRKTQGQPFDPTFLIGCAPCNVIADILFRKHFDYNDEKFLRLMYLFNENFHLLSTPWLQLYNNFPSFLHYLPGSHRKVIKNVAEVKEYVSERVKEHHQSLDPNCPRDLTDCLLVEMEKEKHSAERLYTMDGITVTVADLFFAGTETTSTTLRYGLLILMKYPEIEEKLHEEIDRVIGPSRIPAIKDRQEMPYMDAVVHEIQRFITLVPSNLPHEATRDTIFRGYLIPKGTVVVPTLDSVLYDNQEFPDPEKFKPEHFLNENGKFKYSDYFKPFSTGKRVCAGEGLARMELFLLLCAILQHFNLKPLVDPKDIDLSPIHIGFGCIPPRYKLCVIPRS

As to `C[C@]12C=CC(=O)C=C1C(CO)=C[C@@H]1[C@@H]2CC[C@]2(C)C(=O)CC[C@@H]12`, the Drug metabolism result at Cytochrome P450 1A1 is reported as “metabolite_detected”; at Cytochrome P450 3A5 it was 0.3 pmol/min; on Cytochrome P450 2C9 [1], “metabolite_detected”; at Cytochrome P450 2C19 [3] it was “metabolite_detected”; on Cytochrome P450 2C8 [5], “metabolite_detected”; at Cytochrome P450 3A4 it was 0.42 pmol/min. The Drug metabolism is 0.1 pmol/min on Cytochrome P450 2B6 [6], “metabolite_detected” on Cytochrome P450 2C9 [7], “metabolite_detected” at Cytochrome P450 2C8 [8] and “metabolite_detected” at Cytochrome P450 2C19 [10]. Moreover, the entries for the “Vmax(app)” value in the series on Liver microsome [2], with Liver microsome [9] and at Cytochrome P450 2B6 [11] were 200.47 pmol/mg/min, 781.15 pmol/mg/min and 1.93 pmol/mg/min, respectively. In addition, the Retention_time with Liver microsome [4] turned out to be 6.4 min. The figures for the Km in the series on Liver microsome [9] (read-out: Km(app)) and on Cytochrome P450 2B6 [11] (read-out: Km(app)) were 37.1 µM and 9 µM, respectively.
Take `C=C1C[C@@H]2[C@H](CC[C@]3(C)C(=O)CC[C@@H]23)[C@@]2(C)C=CC(=O)C=C12` [EXEMESTANE]: the “inhibition (INH)” value at Cytochrome P450 2B6 [12] and on Cytochrome P450 2E1 was less than 20% in each case. In the series on Liver microsome [13], the Retention_time was determined as 15.6 min.
Regarding `C#CC1(O)CC[C@H]2[C@@H]3CCC4=CC(=O)CC[C@@H]4[C@H]3CC[C@@]21CC` (stereo not given in full) [NORGESTREL], the Retention_time in the series with Liver microsome [14] is on record as 20.2 min.
